Source: ChEMBL document CHEMBL5537127, “Design and synthesis of novel hederagonic acid analogs as potent anti-inflammatory compounds capable of protecting against LPS-induced acute lung injury” (Eur J Med Chem, 2024)

Legend:
[1] = Cytotoxicity against mouse RAW264.7 cells assessed as cell viability at 40 uM incubated for 24 hrs by MTT assay relative to control; type: toxicity, cell-based; conditions: read-out: Activity
RAW264.7 [2] = assay: Anti-inflammatory activity against LPS-induced mouse RAW264.7 cells assessed as inhibition of NO production at 10 uM preincubated for 2 hrs followed by LPS addition and measured after 24 hrs by Griess reagent-based microplate reader analysis relative to control; type: functional; design: scale not given: the % may be the effect or the level left; conditions: time 26 hrs
RAW264.7 [3] = assay: Anti-inflammatory activity against LPS-induced mouse RAW264.7 cells assessed as inhibition of NO production at 20 uM preincubated for 2 hrs followed by LPS addition and measured after 24 hrs by Griess reagent-based microplate reader analysis relative to control; type: functional; design: scale not given: the % may be the effect or the level left; conditions: time 26 hrs

SMILES | viability at 24 h, 40 µM [1] [%] | Activity (RAW264.7 [2]) [%] | Activity (RAW264.7 [3]) [%]
CC1(C)CC[C@]2(C(=O)OCc3ccccc3)CC[C@]3(C)C(=CC[C@@H]4[C@@]5(C)CCC(=O)[C@@](C)(COC(=O)CCn6cccc6)[C@@H]5CC[C@]43C)[C@@H]2C1 | 96.9 | 7.3 | 12.08
CC1(C)CC[C@]2(C(=O)OCc3ccccc3)CC[C@]3(C)C(=CC[C@@H]4[C@@]5(C)CCC(=O)[C@@](C)(COC(=O)CCc6c[nH]c7ccccc67)[C@@H]5CC[C@]43C)[C@@H]2C1 | 107 | 0.17 | 0.43
CC1(C)CC[C@]2(C(=O)OCc3ccccc3)CC[C@]3(C)C(=CC[C@@H]4[C@@]5(C)CCC(=O)[C@@](C)(COC(=O)c6cc7ccccc7[nH]6)[C@@H]5CC[C@]43C)[C@@H]2C1 | 110 | 22.29 | 42.11
CC1(C)CC[C@]2(C(=O)OCc3ccccc3)CC[C@]3(C)C(=CC[C@@H]4[C@@]5(C)C/C(=C/c6nccs6)C(=O)[C@@](C)(CO)[C@@H]5CC[C@]43C)[C@@H]2C1 | 62.8 |  | 
CC1(C)CC[C@]2(C(=O)OCc3ccccc3)CC[C@]3(C)C(=CC[C@@H]4[C@@]5(C)CCC(=O)[C@@](C)(COC(=O)CCC6CCCCC6)[C@@H]5CC[C@]43C)[C@@H]2C1 | 110 | 0.64 | 2.05
CC1(C)CC[C@]2(C(=O)OCc3ccccc3)CC[C@]3(C)C(=CC[C@@H]4[C@@]5(C)CCC(=O)[C@@](C)(COC(=O)CCNC(=O)CCCC[C@@H]6CCSS6)[C@@H]5CC[C@]43C)[C@@H]2C1 | 99.4 | 43.82 | 62.67
CC1(C)CC[C@]2(C(=O)OCc3ccccc3)CC[C@]3(C)C(=CC[C@@H]4[C@@]5(C)C/C(=C/c6ccccc6)C(=O)[C@@](C)(CO)[C@@H]5CC[C@]43C)[C@@H]2C1 | 68.1 |  | 
CC1(C)CC[C@]2(C(=O)OCc3ccccc3)CC[C@]3(C)C(=CC[C@@H]4[C@@]5(C)CCC(=O)[C@@](C)(CO)[C@@H]5CC[C@]43C)[C@@H]2C1 | 106 | 13.3 | 13.6
CC1(C)CC[C@]2(C(=O)OCc3ccccc3)CC[C@]3(C)C(=CC[C@@H]4[C@@]5(C)CCC(=O)[C@@](C)(COC(=O)CCCCCNC(=O)CCCC[C@@H]6CCSS6)[C@@H]5CC[C@]43C)[C@@H]2C1 | 99.7 | 49.56 | 75.31
CC1(C)CC[C@]2(C(=O)OCc3ccccc3)CC[C@]3(C)C(=CC[C@@H]4[C@@]5(C)CCC(=O)[C@@](C)(COC(=O)CCCCNC(=O)CCCC[C@@H]6CCSS6)[C@@H]5CC[C@]43C)[C@@H]2C1 | 31.6 |  | 
CC1(C)CC[C@]2(C(=O)OCc3ccccc3)CC[C@]3(C)C(=CC[C@@H]4[C@@]5(C)CCC(=O)[C@@](C)(COC(=O)C(F)(F)F)[C@@H]5CC[C@]43C)[C@@H]2C1 | 4.58 |  | 
CC1(C)CC[C@]2(C(=O)OCc3ccccc3)CC[C@]3(C)C(=CC[C@@H]4[C@@]5(C)C/C(=C/c6ccc([N+](=O)[O-])cc6)C(=O)[C@@](C)(CO)[C@@H]5CC[C@]43C)[C@@H]2C1 | 119 |  | 
CC1(C)CC[C@]2(C(=O)OCc3ccccc3)CC[C@]3(C)C(=CC[C@@H]4[C@@]5(C)CCC(=O)[C@@](C)(COC(=O)CNC(=O)CNC(=O)CCCC[C@@H]6CCSS6)[C@@H]5CC[C@]43C)[C@@H]2C1 | 78.5 |  | 
CC1(C)CC[C@]2(C(=O)OCc3ccccc3)CC[C@]3(C)C(=CC[C@@H]4[C@@]5(C)C/C(=C/c6cncs6)C(=O)[C@@](C)(CO)[C@@H]5CC[C@]43C)[C@@H]2C1 | 64.8 |  | 
CC1(C)CC[C@]2(C(=O)OCc3ccccc3)CC[C@]3(C)C(=CC[C@@H]4[C@@]5(C)CCC(=O)[C@@](C)(COC(=O)CNC(=O)CCCC[C@@H]6CCSS6)[C@@H]5CC[C@]43C)[C@@H]2C1 | 114 | 28.81 | 46.99
CC(C)=CC(=O)OC[C@]1(C)C(=O)CC[C@@]2(C)[C@H]1CC[C@]1(C)[C@@H]2CC=C2[C@@H]3CC(C)(C)CC[C@]3(C(=O)OCc3ccccc3)CC[C@]21C | 95 | 16.39 | 25.68
CC(=O)CCC(=O)OC[C@]1(C)C(=O)CC[C@@]2(C)[C@H]1CC[C@]1(C)[C@@H]2CC=C2[C@@H]3CC(C)(C)CC[C@]3(C(=O)OCc3ccccc3)CC[C@]21C | 106 | 43.51 | 59.4
